# Reference: patent US12492373B2, “Production method for nerve tissue” (Racthera Co., Ltd., priority 2014, dated 2025)
# Tested on: human iPS cells (1231A3 strain)
# Assay: Bright field observation of feeder-free cultured human iPS cells after preconditioning
# Format: cell-based
# Experimental: As a specific example of preconditioning in step 1 of the production method of the present invention, the following operation was performed. First, the subconfluent human iPS cells (1231A3 strain) were washed with PBS, and dispersed into single cells by using TrypLE Select (manufactured by Life Technologies). Thereafter, the above human iPS cells dispersed into single cells were seeded in a plastic culture dish (manufactured by Iwaki) coated with Laminin 511-E8, […] (ROCK inhibiting substance, 10 μM). When a 6-well plate (manufactured by Iwaki, culture area 9.4 cm^2) was used as the above plastic culture dish, the number of plated cells for the above human iPS cells dispersed into single cells was set to 6×10^3. When a 60 mm dish (manufactured by Iwaki, culture area 21 cm^2) was used as the above plastic culture dish, the number of plated cells for the above human iPS cells dispersed into single cells was set to 13×10^3. One day after seeding, the medium was changed to StemFit medium free of Y27632. Thereafter, once in 1-2 days, the medium was changed to StemFit medium free of Y27632. Thereafter, the cells were cultured until 5 days after seeding, namely, one day before subconfluence (50% of culture area is covered with cells). Even when cultured for 6 days after seeding, similar results are shown. The human iPS cells one day before subconfluence in the above feeder-free culturing were subjected to feeder-free culturing in the presence of SB431542 (TGFβR inhibitor (TGFβRi), 5 μM) (step 1: preconditioning treatment, FIG. 1 “Precondition TGFβRi 24 hr”), or in the absence thereof (step 1: without precondition treatment, FIG. 1 “Control”) for 1 day. The bright field observation of cultured cells was performed under an inverted microscope (KEYENCE). […] As a preconditioning operation, subconfluent human iPS cells (1231A3 strain) were first washed with PBS, and dispersed into single cells by using TrypLE Select (manufactured by Life Technologies). […]
# [1] = 1 day in Essential 8 medium, SB431542 5 μM, LDN193189 100 nM, or both
Compound,morphology of human iPS cell [1],morphology of human iPS cell (SB431542 5 μM for 1 day during feeder-free culturing in StemFit medium)
"c1ccc2c(-c3cnn4cc(-c5ccc(N6CCNCC6)cc5)cnc34)ccnc2c1 [LDN193189, 4-[6-(4-piperazin-1-ylphenyl)pyrazolo[1,5-a]pyrimidin-3-yl]quinoline]",not largely influenced,
"NC(=O)c1ccc(-c2nc(-c3ccc4c(c3)OCO4)c(-c3ccccn3)[nH]2)cc1 [SB431542, 4-(5-benzol[1,3]dioxol-5-yl-4-pyridin-2-yl-1H-imidazol-2-yl)-benzamide]",not largely influenced,not largely influenced
